From the NIST ThermoML archive (doi:10.1021/je0604232)
± gives the expanded uncertainty stated by the source.

Test: molar heat capacity at constant pressure; xn = mol fraction of the nth substance listed
Details: 101 kPa, Liquid

NCCNCCO [N-(2-aminoethyl)ethanolamine] + O
molar heat capacity at constant pressure [J/K/mol]
Details | x1 = 0.0999 | x1 = 0.1999 | x1 = 0.2995 | x1 = 0.4 | x1 = 0.5002 | x1 = 0.5997 | x1 = 0.7011 | x1 = 0.8003 | x1 = 0.8979 | x1 = 1
303.15 K | 100 ± 1 | 121 ± 1 | 141 ± 1 | 161 ± 1 | 181 ± 2 | 201 ± 2 | 221 ± 2 | 240 ± 2 | 258 ± 2 | 279 ± 2
308.15 K | 103 ± 1 | 125 ± 1 | 145 ± 1 | 165 ± 1 | 185 ± 2 | 205 ± 2 | 226 ± 2 | 245 ± 2 | 263 ± 2 | 284 ± 2
313.15 K | 104 ± 1 | 127 ± 1 | 147 ± 1 | 167 ± 1 | 187 ± 2 | 207 ± 2 | 227 ± 2 | 247 ± 2 | 265 ± 2 | 285 ± 2
318.15 K | 106 ± 1 | 129 ± 1 | 150 ± 1 | 170 ± 2 | 190 ± 2 | 209 ± 2 | 229 ± 2 | 249 ± 2 | 266 ± 2 | 286 ± 2
323.15 K | 107 ± 1 | 131 ± 1 | 152 ± 1 | 172 ± 2 | 192 ± 2 | 211 ± 2 | 231 ± 2 | 250 ± 2 | 267 ± 2 | 287 ± 2
328.15 K | 110 ± 1 | 134 ± 1 | 155 ± 1 | 175 ± 2 | 195 ± 2 | 214 ± 2 | 233 ± 2 | 252 ± 2 | 269 ± 2 | 289 ± 2
333.15 K | 112 ± 1 | 137 ± 1 | 158 ± 1 | 178 ± 2 | 197 ± 2 | 216 ± 2 | 235 ± 2 | 254 ± 2 | 271 ± 2 | 290 ± 2
338.15 K | 116 ± 1 | 141 ± 1 | 162 ± 1 | 181 ± 2 | 201 ± 2 | 219 ± 2 | 238 ± 2 | 257 ± 2 | 273 ± 2 | 292 ± 2
343.15 K | 120 ± 1 | 146 ± 1 | 167 ± 1 | 185 ± 2 | 204 ± 2 | 223 ± 2 | 241 ± 2 | 260 ± 2 | 275 ± 2 | 293 ± 2
348.15 K | 124 ± 1 | 152 ± 1 | 172 ± 2 | 189 ± 2 | 208 ± 2 | 227 ± 2 | 244 ± 2 | 262 ± 2 | 277 ± 2 | 295 ± 2
353.15 K | 130 ± 1 | 158 ± 1 | 177 ± 2 | 194 ± 2 | 213 ± 2 | 231 ± 2 | 248 ± 2 | 265 ± 2 | 279 ± 2 | 296 ± 2
